Marks after values point to notes of the source that are not given here.
Tests used:
Type in all cases: in vivo
[1] = tested on: DSS-induced colitis in the mouse; assay: 10-day DSS-induced colitis, Disease Activity Index (Example 6); parameters: key: clinical Disease Activity Index (stool, bleeding, weight loss)
Protocol: (§1) Daily clinical assessment of DSS-treated animals was carried out, with the calculation of a validated clinical Disease Activity Index (DAI) ranging from 0 to 4 according to the following parameters: stool consistency, presence or absence of rectal bleeding and weight loss:
(§2) Example 6 was carried out essentially as described in Example 5. The differences are indicated below.
(§3) Animals were divided into 9 experimental groups.
The animals in group F received one dose i.v. and another dose s.c. (12 hours after the i.v. dose) of the corresponding test item for 10 consecutive days.
The animals in group G received one dose every two days of the corresponding test item for 10 consecutive days.
Methylprednisolone was given orally at a dose of 1 mg/kg (group H) and 10 mg/kg (group J) in a dosing volume of 5 ml/kg body weight, once daily for 10 consecutive days.

[2] = tested on: DSS-induced colitis in the mouse; assay: 10-day DSS-induced colitis, Disease Activity Index (Example 5); details: 1 mg/kg p.o. daily
Protocol: (§4) Animals were divided into 5 experimental groups.
Colitis was induced in mice by supplementing their drinking water with DSS 2% for 7 days.
as §1
Bodyweight loss was calculated as the percent difference between the original bodyweight (Day 1) and the actual bodyweight on each experimental day (2-10).
The appearance of diarrhoea is defined as mucus/faecal material adherent to anal fur. Rectal bleeding is defined as diarrhoea containing visible blood/mucus or gross rectal bleeding. The maximum score of the DAI each day is 12.

[3] = tested on: DSS-induced colitis in the mouse; assay: 10-day DSS-induced colitis, colon histological score (Example 6)
Protocol: (§5) Two sections (proximal and distal) of colon were taken from each animal and preserved in neutral buffered formalin for subsequent histological analysis (haematoxylin and eosin staining) according to the following scoring system:
as §2, §3
Two sections (proximal and distal) of colon were taken from each animal, processed for histological analysis (haematoxylin and eosin staining), and scored by a blind observer according to the scoring system described above.

[4] = tested on: DSS-induced colitis in the mouse; assay: 10-day DSS-induced colitis, colon histological score (Example 5); details: 1 mg/kg p.o. daily, day 10
Excerpt: as §4
Their colons were removed and their length and weight measured after exclusion of the caecum.
as §5
Two sections (proximal and distal) of colon were taken from each animal, processed for histological analysis (haematoxylin and eosin staining) and scored by a blind observer according to the histological scoring system described above.

**Q.** With `C[C@H]1C[C@@H]2[C@H]([C@@H](O)C[C@@]3(C)[C@H]2CC[C@]3(O)C(=O)COC(=O)CCC(=O)O)[C@@]2(C)C=CC(=O)C=C12` [Methylprednisolone 21-hemisuccinate, reference compound] as the molecule, how does the “DAI score, mean” value ([1]; Group H, 1 mg/kg p.o., Day 1) read?
**A.** 0.00

**Q.** And the “DAI score, mean” value ([1]; Group H, 1 mg/kg p.o., Day 2)?
**A.** 0.50

**Q.** What about the “DAI score, mean” value ([1]; Group H, 1 mg/kg p.o., Day 3) of the same molecule?
**A.** 0.50

**Q.** What about the “DAI score, mean” value ([1]; Group H, 1 mg/kg p.o., Day 4) of the same molecule?
**A.** 0.40

**Q.** And the “DAI score, mean” value ([1]; Group H, 1 mg/kg p.o., Day 5)?
**A.** 1.10

**Q.** And the “DAI score, mean” value ([1]; Group H, 1 mg/kg p.o., Day 6)?
**A.** 3.80

**Q.** What about the “DAI score, mean” value ([1]; Group H, 1 mg/kg p.o., Day 7) of the same molecule?
**A.** 5.90

**Q.** And the “DAI score, mean” value ([1]; Group H, 1 mg/kg p.o., Day 8)?
**A.** 6.40

**Q.** What about the “DAI score, mean” value ([1]; Group H, 1 mg/kg p.o., Day 9) of the same molecule?
**A.** 5.60*

**Q.** And the “DAI score, mean” value ([1]; Group H, 1 mg/kg p.o., Day 10)?
**A.** 5.60*

**Q.** And the “DAI score, mean” value ([1]; Group J, 10 mg/kg p.o., Day 1)?
**A.** 0.00

**Q.** And the “DAI score, mean” value ([1]; Group J, 10 mg/kg p.o., Day 2)?
**A.** 0.30

**Q.** And the “DAI score, mean” value ([1]; Group J, 10 mg/kg p.o., Day 3)?
**A.** 0.70

**Q.** What about the “DAI score, mean” value ([1]; Group J, 10 mg/kg p.o., Day 4) of the same molecule?
**A.** 0.80

**Q.** And the “DAI score, mean” value ([1]; Group J, 10 mg/kg p.o., Day 5)?
**A.** 1.30

**Q.** What about the “DAI score, mean” value ([1]; Group J, 10 mg/kg p.o., Day 6) of the same molecule?
**A.** 2.00

**Q.** What about the “DAI score, mean” value ([1]; Group J, 10 mg/kg p.o., Day 7) of the same molecule?
**A.** 3.20**

**Q.** And the “DAI score, mean” value ([1]; Group J, 10 mg/kg p.o., Day 8)?
**A.** 4.80**

**Q.** And the “DAI score, mean” value ([1]; Group J, 10 mg/kg p.o., Day 9)?
**A.** 5.20*

**Q.** And the “DAI score, mean” value ([1]; Group J, 10 mg/kg p.o., Day 10)?
**A.** 4.00***

**Q.** And the DAI score ([2]; Day 1)?
**A.** 0.00

**Q.** What about the DAI score ([2]; Day 2) of the same molecule?
**A.** 0.10

**Q.** What about the DAI score ([2]; Day 3) of the same molecule?
**A.** 0.00

**Q.** And the DAI score ([2]; Day 4)?
**A.** 2.60

**Q.** What about the DAI score ([2]; Day 5) of the same molecule?
**A.** 2.50

**Q.** What about the DAI score ([2]; Day 6) of the same molecule?
**A.** 2.60

**Q.** What about the DAI score ([2]; Day 7) of the same molecule?
**A.** 3.10

**Q.** And the DAI score ([2]; Day 8)?
**A.** 2.50*

**Q.** And the DAI score ([2]; Day 9)?
**A.** 3.80*

**Q.** And the DAI score ([2]; Day 10)?
**A.** 4.90**

**Q.** What about the “Histology Score Distal Colon, mean” value ([3]; Group H, 1 mg/kg p.o.) of the same molecule?
**A.** 3.00***

**Q.** And the “Histology Score Proximal Colon, mean” value ([3]; Group H, 1 mg/kg p.o.)?
**A.** 1.40

**Q.** What about the “Histology Score Distal Colon, mean” value ([3]; Group J, 10 mg/kg p.o.) of the same molecule?
**A.** 2.70***

**Q.** What about the “Histology Score Proximal Colon, mean” value ([3]; Group J, 10 mg/kg p.o.) of the same molecule?
**A.** 1.40

**Q.** And the “Histology Score Distal Colon” value [4]?
**A.** 3.70

**Q.** And the “Histology Score Proximal Colon” value [4]?
**A.** 2.80*

**Q.** What about the “Histology Score Proximal Colon” value ([4]; listed as prednisolone) of the same molecule?
**A.** 2.8±0.5

Reference: patent US20100016232A1, “Treatment Of Inflammatory Diseases With Mammal Beta Defensins” (Novozymes A/S, priority 2008, published 2010)
